Laboratory results from US10441560B2, “Compositions and methods for treating non-alcoholic steatohepatitis” (priority 2013, dated 2019).

How the values were obtained:
[1] = Absorption, distribution and metabolites after oral 14C-EPA-E in rats; type: in vivo
Experimental: (§1) After administration of ^14C-EPA-E into the ligated intestine of rats, the residual radioactivity in the intestine at 24 hours was only 4.6% of the administered dose. Radioactivity transferred to the plasma and lymph was mainly detected in the triglyceride (TG) fraction in the early phase after dosing, while distribution to the free fatty acid (FFA) fraction was slight at all timepoints. […] Orally administered EPA-E was primarily incorporated in adrenal gland lipids as cholesterol esters of the fatty acids eicosapentaenoic acid (EPA), docosapentaenoic acid (DPA) and docosahexaenoic acid (DHA).
After oral administration of ^14C-EPA-E to the rat, EPA, DPA and DHA were detected as metabolites in the total lipid fraction of the plasma and tissues (liver, fat, heart and brain). […] In the total lipid fraction of the liver, the radioactivity originated mainly from EPA, DPA and DHA. Thus, it is considered that EPA, DPA and DHA are the predominant metabolites of ^14C-EPA-E in tissues, as constituent fatty acids of the total lipid fraction.

[2] = tested on: ligated intestine; assay: Administration of 14C-EPA-E into the ligated intestine of rats; type: in vivo; conditions: at 24 hours
Experimental: as §1

[3] = Hydrolysis in rat small intestine homogenates, lymph, plasma and liver homogenates; type: in vitro ADME
[4] = tested on: CYP450; conditions: at free concentrations observed in humans; previous studies; cited from earlier work
[5] = Lipid lowering in animal studies; type: in vivo; conditions: rats, hamsters and rabbits
[6] = tested on: arteries; assay: Preservation of elasticity of arteries; type: in vivo; conditions: rabbits
[7] = tested on: diet-induced hepatic steatosis model; assay: Mouse diet-induced hepatic steatosis model; type: in vivo; conditions: repeat oral administration at ≥0.1 mg/g
[8] = tested on: galactosamine-induced steatohepatitis mouse model; assay: Galactosamine-induced steatohepatitis mouse model; type: in vivo; conditions: oral administration at 1000 mg/kg
[9] = tested on: methionine-choline deficient diet rat model of nonalcoholic steatohepatitis; assay: Methionine-choline deficient diet rat model of nonalcoholic steatohepatitis; type: in vivo; conditions: repeat oral administration at 1000 mg/kg
[10] = tested on: central nervous, autonomic nervous, respiratory and cardiovascular systems; assay: Safety pharmacology studies; type: in vivo; conditions: oral doses up to 3000 mg/kg
[11] = tested on: pylorus-ligated rats; assay: Gastric fluid levels in pylorus-ligated rats; type: in vivo; conditions: 3000 mg/kg oral dose
[12] = Excretion of radioactivity after single oral administration (rat); type: in vivo, rats
Experimental: EPADEL is a product containing ethyl all-cis-5,8,11,14,17-eicosapentaenoate (EPA-E), one of the n−3 essential fatty acids. The preclinical absorption, distribution, metabolism and excretion (ADME) characteristics of EPA-E have been determined primarily in rats.
(§2) Consequently, when EPA-E is administered orally to humans, it would appear that it is well absorbed, even though the unchanged ethyl ester form is not detected, and the free form (EPA) is only detected at a very low level, in the blood. Due to this absorption mechanism of essential fatty acids, the administered EPA-E exists as a blood-constituent fatty acid in the total lipids. In fact, according to the approval package document of Lovaza®, the free form of EPA is undetectable in the circulation (<1 μM) following an oral dose of 4 g of Omacor® (a mixture of the ethyl esters of EPA and DHA) Following oral administration of EPA-E, EPA, DPA and DHA were isolated and identified as metabolites in tissues and plasma. EPA, DPA and DHA were incorporated into TG and PL. Radioactivity was primarily excreted in expired air (44%) after single oral administration at 30 mg/kg EPA-E with minimal excretion in bile and urine (˜3%) and approximately 20% excreted in feces.
Renal excretion was the elimination route for several minor highly polar metabolites (<0.4%), but EPA-E, EPA, DPA or DHA were not detected in the urine. In feces, EPA-E and EPA, evidently derived from the unabsorbed drug, were detected; however, no DPA or DHA was detected in the feces.

[13] = set-up: species or system dogs; conditions: dog, in vivo, po, 30 mg/kg, 1 week
Experimental: as §2

[14] = tested on: NASH; assay: Phase II double blind, placebo-controlled clinical trial of EPA-E in subjects with NASH; type: in vivo, human
Text: This example provides the protocol used for an ongoing phase II clinical trial, double blind, placebo-controlled study to investigate the safety, efficacy, and pharmacokinetic profile of two doses of EPA-E in subjects with NASH. Up to 70 subjects were enrolled into each treatment arm, for a total of 210 subjects to be enrolled. Block randomization using an interactive voice response system (IVRS) was used to assign patients in a 1:1:1 ratio to two active doses and placebo. Patients were stratified at randomization by presence or absence of diabetes. Patients with diabetes comprised no more than 25% of the total number of patients enrolled. […] Subjects were required to have a liver biopsy with proven NASH in the 6 month period prior to screening. The Pharmacokinetic profile for EPA-E was evaluated in a subgroup of subjects in specified sites. Subjects were approached prior to providing informed consent to determine if they will participate in the PK group subset. Approximately 36 subjects participated in the PK subset evaluation (12 from each treatment arm, to include 6 males and 6 females). Overall study duration plan was 2 years. In order to support the trial, EPA-E capsules and matching placebo capsules were prepared. EPA-E capsule is an oval soft gelatin capsule containing 300 mg of EPA-E as an active ingredient. […] These capsules are unidentifiable as EPA-E capsules or placebo capsules. Subjects were administered orally 3 capsules 3 times daily, immediately after meals. Subjects were potentially included into the study if they met all the following criteria: • 1. Diagnosis of definite NASH by the central reading pathologists: • Liver biopsy slides will be submitted for evaluation by the central pathologists according to one of the following criteria: • a. Previous liver biopsies must have been obtained within 6 months prior to informed consent and should be judged by the local pathologist as showing NAS ≥4 with a minimum score of 1 each for steatosis and lobular inflammation plus […] ballooning OR at least 1a sinusoidal fibrosis AND a finding of possible or definite steatohepatitis • b. For liver biopsies performed after informed consent is obtained, all slides will be submitted for reading by the central pathologists in conformity with the independent pathology review charter (IPRC) • 2. Patients of either gender greater than 18 years of age • 3. Patients with diabetes that have been on stable doses of anti-diabetic agents since at least 6 months prior to liver biopsy may be enrolled • 4. Females must be of non-child bearing potential (surgically sterilized or at least two years post-menopausal) or if of child-bearing potential, must have a negative pregnancy test at screening and agree to use an effective form of contraception during the study and for at least 30 days following the last dose of study medication • 5. Normal ECG or clinically non-significant findings at the Screening and Baseline visits • 6. No significant concomitant medical illness, without any clinically significant physical exam findings and without any clinically significant laboratory findings, as determined by the principal investigator • 7. […] Inability or unwillingness to have a liver biopsy • 2. Diagnosis of cirrhosis by central pathology reviewers • 3. Previous bariatric surgery or biliary diversion (i.e. gastric bypass), esophageal banding and gastric banding • 4. Serum ALT>300 U/L • 5. Subject has used drugs associated with steatohepatitis within 6 months prior to screening (corticosteroids, high dose estrogens, methotrexate, amiodarone, anti-HIV drugs, tamoxifen, diltiazem) • 6. Use of the following anti-NASH agents for more than a 2 week period in the 3 months prior to liver biopsy or the 3 months prior to screening: • a. Vitamin E>60 IU per day • b. Omega-3-acid ethyl esters or omega-3-PUFA-containing supplements >200 mg per day • c. Thiazoledinediones (e.g. pioglitazone) • 7. […]

[15] = single oral administration at 30 mg/kg

## CC/C=C\C/C=C\C/C=C\C/C=C\C/C=C\CCCC(=O)OCC [^14C-EPA-E]
[1]; rat, oral administration, plasma, liver, fat, heart and brain
  unchanged EPA-E in the plasma or tissues: no unchanged EPA-E was found
[1]; rats, oral 14C-EPA-E
  distribution of radioactivity in body tissues: widely distributed in the body tissues
[2]
  residual radioactivity in the intestine: 4.6 % of the administered dose
[3]
  hydrolysis: hydrolyzed rapidly

## CC/C=C\C/C=C\C/C=C\C/C=C\C/C=C\CCCC(=O)O [EPA, Eicosapentaenoic acid]
[4]
  CYP450 inhibition: unlikely to inhibit CYP450

## CC/C=C\C/C=C\C/C=C\C/C=C\C/C=C\CCCC(=O)OCC [EPA-E, ethyl all-cis-5,8,11,14,17-eicosapentaenoate]
[5]
  lipids: lower lipids
[6]
  elasticity of arteries: preserve the elasticity of arteries
[7]
  fat accumulation: suppressed fat accumulation
  hepatic SREBP-1c levels: suppressing hepatic SREBP-1c levels
  monounsaturated fatty acid (MUFA) synthesis by SCD1: suppressing
[8]
  progression of steatohepatitis: retarded progression of steatohepatitis
  triglyceride (TG) accumulation: suppressing triglyceride (TG) accumulation
[9]
  fibrosis: inhibited fibrosis
  inflammation and oxidative stress: suppressing inflammation and oxidative stress
[10]
  effect on the central nervous, autonomic nervous, respiratory and cardiovascular systems: no effect
[11]
  gastric fluid levels: reduction in gastric fluid levels
[1]; single oral dose 30-1000 mg/kg, rats
  absorption: well-absorbed
[12]; rat, in vivo, po, 30 mg/kg
  radioactivity excreted in expired air: 44%
[12]; [15]
  radioactivity excreted in bile and urine: ~3%
  radioactivity excreted in feces: approximately 20%
[12]; urine
  EPA-E in the urine: not detected
[13]
  radioactivity excreted in the urine: 1.0%
  radioactivity recovered in the feces: 19.2%
[14]; fasting glucose =<125 mg/dL and HbA1c =<6.4, Study arm 1, FIG. 4
  response rate: higher response to rate
[14]; fasting glucose =<125 mg/dL and HbA1c =<6.4, Study arm 2
  efficacy (responders): equivalent to that of Study arm 1
[14]; patients with GGT levels =<33 IU/L, Study arm 1 and 2, FIG. 9, preliminary
  NASH response (change of NAS score): higher efficacy
[14]; patients with GGT levels =<60 IU/L, Study arm 1 and 2, FIG. 8, preliminary
  efficacy (preliminary endpoint achievement rate v. GGT): higher efficacy
[14]; patients with GGT ≤33 IU/L, Study arm 2, FIG. 10, preliminary
  improvement of serum EPA/AA ratio on Day 365: higher efficacy
[14]; patients with GGT ≤33 IU/L, Study arm 2, FIG. 12
  serum EPA/AA ratio over time: significant increase
[14]; patients with HbA1c levels =<6.4, Study arm 1, FIG. 2, preliminary
  efficacy (responders): higher efficacy
[14]; patients with HbA1c levels =<6.4, Study arm 2, preliminary
  efficacy (responders): equivalent to that of Study arm 1
[14]; patients with fasting glucose =<125 mg/dL, Study arm 1, FIG. 3, preliminary
  efficacy (responders): higher efficacy
[14]; patients with fasting glucose =<125 mg/dL, Study arm 2, preliminary
  efficacy (responders): equivalent to that of Study arm 1
[14]; patients without biliary tract disease markers (GGT ≤33 IU/L), Study arm 1 (600 mg TID) and Study arm 2 (900 mg TID), FIG. 7, preliminary
  efficacy (responders): higher efficacy
[14]; patients without diabetes or with mild diabetes compared to diabetic patients, Study arm 1 (600 mg EPA-E, TID), FIG. 1, preliminary
  efficacy (responders: NAS Score ≤3 or improvement of ≥2 across at least 2 of NAS components): higher efficacy
[14]; patients without diabetes or with mild diabetes, Study arm 2 (900 mg EPA-E, TID), preliminary
  efficacy (responders: NAS Score ≤3 or improvement of ≥2 across at least 2 of NAS components): equivalent to that of Study arm 1
